Converted amounts (≈) assume the structure as drawn.
Details: buffer; pH 7.4; 200.0 µM

| Compound | solubility kinetic [µg/mL] |
| --- | --- |
| O=c1[nH]c(NCCO)c(N=Cc2ccccc2)c(=O)[nH]1 | > 41.1 |
| S=C1NCCNC(=S)NCCOCCOCCOCCN1 | > 50.5 |
| CCN(Cc1ccncc1)Cc1ccc(Br)cc1.O=C(O)C(=O)O | 30.6 |
| CCCCCOC(=O)NC1CCS(=O)(=O)C1 (centres undefined) | > 37.4 |
| CC1CCc2c(sc(NC(=O)C3=COCCO3)c2C(N)=O)C1 (centres undefined) | 6.3 (≈ 19.5 µM) |
| O=C(Nc1ccncc1)Nc1cccc(C(F)(F)F)c1 | 5.4 (≈ 19.2 µM) |
| O=[N+]([O-])c1ccc(C(O)CN2CCOCC2)cc1 (centres undefined) | > 37.8 |
| O=C1N(Cc2cccc(Cl)c2)C[C@@H]2C[C@@H](c3ccccn3)N3CCC[C@@]123 | 39 (≈ 106 µM) |
| CCOc1ccc(NC(=O)c2cccc(NC(=O)c3ccccc3)c2)cc1 | 0.8 (≈ 2.22 µM) |
| COC(=O)C(C)Oc1ccc(Cl)c(CN2OCC(C)(C)C2=O)c1 (centres undefined) | > 51.3 |
| O=C(O)Cc1ccc(NS(=O)(=O)c2ccc3ccccc3c2)cc1 | > 51.2 |
| O=C(CSc1ncccn1)NC1CCS(=O)(=O)C1 (centres undefined) | 39.7 (≈ 138 µM) |
| O=C(CSc1nnc2ccccn12)NC(=O)c1ccccc1Cl | > 52 |
| N/C(=N\OC(=O)COc1ccccc1)c1ccncc1 | > 40.7 |
| S=C(NCCc1c[nH]c2ccccc12)NC1CC1 | > 38.9 |
| O=C(COC(=O)c1ccccc1Br)Nc1ccc(F)cc1 | 28.7 (≈ 81.5 µM) |
| O=C(NCC1CCCCC1)c1ccc(=O)[nH]c1 | > 35.1 |
| CC(c1ccccc1)N1C(=O)OC(C)(C)C1(C)O (centres undefined) | > 37.4 |
| CCCC(=O)OCC[N+](C)(C)C.[Cl-] | > 31.5 |
| CCCN(CC(=O)Nc1ccccc1OC)C(=O)C1CCCC1 | > 47.8 |
| O=C(Nc1csc(Cl)c1)c1ccccc1 | 6.2 (≈ 26.1 µM) |
| O=C(O)CCN1CCN(S(=O)(=O)c2ccc3ccccc3c2)CC1 | 44.5 (≈ 128 µM) |
| COc1ccccc1OCCCn1cc(C(C)=O)c2ccccc21 | 25.8 (≈ 79.8 µM) |
| COc1ccccc1OC(C)C(=O)N1CCC(Cc2ccccc2)CC1 (centres undefined) | 50.9 (≈ 144 µM) |
| COc1ccc(NC(=S)N2CCCC2)c(OC)c1 | > 40 |
| CCOc1ncccc1C(=O)OCC(=O)c1ccc(Br)s1 | > 55.5 |

| Compound | solubility kinetic [µg/mL] |
| --- | --- |
| O=C(COC(=O)C1CCC(=O)N1)Nc1cccc([N+](=O)[O-])c1 (centres undefined) | > 46.1 |
| Cl.NC(=NCCc1ccccc1)c1cccc([N+](=O)[O-])c1 | > 45.9 |
| NC(=S)Nc1cc(Cl)cc(Cl)c1 | 33 (≈ 149 µM) |
| O=C(NCc1ccccc1)c1nccnc1CO | > 36.5 |
| O=[N+]([O-])c1ccc(NC(=S)N2CCN(c3ccccn3)CC2)cc1 | 1.4 (≈ 4.08 µM) |
| CC(C(O)c1ccc(O)cc1)N1CCC(Cc2ccccc2)CC1.O=C(O)C(O)C(O)C(=O)O (centres undefined) | > 71.3 |
| CC1(C)CC(=O)N(c2cc(Cl)cc(Cl)c2)C(=O)C1 | 11.7 (≈ 40.9 µM) |
| CC(=O)c1cccn1S(=O)(=O)c1ccccc1 | 36.9 (≈ 148 µM) |
| CN(C(=O)c1ccc(Br)o1)C1(C)CCS(=O)(=O)C1 (centres undefined) | > 50.4 |
| CS(=O)(=O)Nc1ccccc1C(=O)OCC(=O)NCc1cccs1 | > 55.3 |
| O=C(CC(=O)Nc1cccc(F)c1)Nc1cccc(F)c1 | 9.4 (≈ 32.4 µM) |
| COc1cc([N+](=O)[O-])ccc1NC(=O)NCc1ccco1 | 13.8 (≈ 47.4 µM) |
| Clc1ccc(N2CC2c2ccncc2)cc1 (centres undefined) | 32.6 (≈ 141 µM) |
| C[N+](C)(C)CC#CCN1CCCC1=O.[I-] | > 48.3 |
| CN(CC(=O)Nc1ccc(F)cc1)C(=O)Cc1ccsc1 | > 46 |
| Cc1ccc(S(=O)(=O)N2CCOCC2)cc1NC(=O)COC(=O)COc1ccccc1[N+](=O)[O-] | 72.2 (≈ 146 µM) |
| Cc1ccccc1C(=O)NC(C)C1CC2CCC1C2 (centres undefined) | 28.5 (≈ 111 µM) |
| N#CCC(=O)Nc1ccc(C(=O)Nc2cccc(S(N)(=O)=O)c2)cc1 | 46.2 (≈ 129 µM) |
| COc1ccc(C2(CNC(=O)c3cccs3)CCOCC2)cc1 | 48.6 (≈ 147 µM) |
| S=C(NCc1ccco1)N1CCN(c2ccccn2)CC1 | 42.5 (≈ 141 µM) |
| O=C(CCCc1ccccc1)NC12CC3CC(CC(C3)C1)C2 | 11 (≈ 37 µM) |
| CCOC(=O)Cc1csc(NC(=O)CCc2ccccc2)n1 | 41 (≈ 129 µM) |
| O=S(=O)(NCCc1ccccc1)c1ccc(F)cc1 | 40.9 (≈ 146 µM) |
| O=C(N/C(=C/c1cccnc1)C(=O)N1CCOCC1)c1ccccc1Cl | > 55.8 |
| O=C(NCC1CC1)Nc1cccs1 | > 29.4 |

Continued, values first:

| solubility kinetic [µg/mL] | Compound |
| --- | --- |
| 25.3 (≈ 74.3 µM) | Cc1ccnc(N(C(=O)Nc2ccccc2)C2=NCC(C)(C)S2)c1 |
| 1.6 (≈ 5.63 µM) | COc1cccc(C(=O)Nc2nc3ccccc3s2)c1 |
| 3.6 (≈ 10.9 µM) | CC(=O)N1CCc2cc(S(=O)(=O)Nc3ccc(C)cc3)ccc21 |
| 4.1 (≈ 12.1 µM) | CCCn1c(=O)c(C(=O)Nc2ncccc2O)c(O)c2ccccc21 |
| > 45.4 | Cc1occc1C(=O)N1CCCC(Nc2ccc(F)cc2)C1 (centres undefined) |
| 19 (≈ 65.2 µM) | O=C1c2ccccc2-c2ccc(C(=O)N3CCCCC3)cc21 |
| 40.8 (≈ 117 µM) | COc1ccc(NC(=O)C2CC(c3c(F)cccc3Cl)=NO2)cc1 (centres undefined) |
| > 44.5 | CCN(CC)C(=O)c1ccccc1NC(=O)c1ccccc1 |
| > 37.2 | Cc1cccc(NC(=O)c2cccnc2Cl)n1 |
| > 38.1 | O=C(c1ccc(=O)[nH]c1)N1CCCc2ccccc21 |
| 7.9 (≈ 23.6 µM) | O=C(NCc1csc(-c2cccs2)n1)c1cccc(Cl)c1 |
| > 51 | CC1=C(C)CC(C(=O)NCc2c(F)cccc2Cl)C(C(=O)O)C1 (centres undefined) |
| 1.8 (≈ 5.31 µM) | O=C(Nc1ccc(OCc2ccccc2Cl)cc1)c1cccnc1 |
| > 47 | COc1ccc(CCNC(=O)Cc2ccc(C)cc2)cc1OC |
| 7.6 (≈ 29.8 µM) | O=[N+]([O-])c1ccc(N2CCc3ccccc3C2)nc1 |
| > 47.8 | CC(C)(C)OC(=O)N1CCC(CNC(=O)c2ccccc2)CC1 |
| 1 (≈ 3.66 µM) | Cc1ccc(N2C(=O)C(F)(F)C2c2ccccc2)cc1 (centres undefined) |
| < 0.2 | Cc1ccc(-c2noc(-c3c(C)noc3C)n2)cc1 |
| < 0.7 | Cc1cccc(NC(=O)COC(=O)c2cc3ccccc3oc2=O)c1 |
| 8.2 (≈ 24.9 µM) | Cc1ccc(NC(=O)CCn2c(=O)[nH]c3ccsc3c2=O)cc1 |
| 18.2 (≈ 56.1 µM) | O=[N+]([O-])c1ccccc1OCCCOc1cccc2cccnc12 |
| 23.2 (≈ 97.4 µM) | Cn1c(COc2ccccc2)nc2ccccc21 |
| 9.1 (≈ 29.5 µM) | COc1ccc2[nH]c(C(=O)N(C)Cc3ccccc3)c(C)c2c1 |

| solubility kinetic [µg/mL] | Compound |
| --- | --- |
| > 53.9 | CCc1cccc(C)c1NC(=O)CN1C(=O)NC(C)(CCC(C)C)C1=O (centres undefined) |
| > 45.6 | CN1CCC(OC(=O)COc2ccc(F)cc2)CC1.Cl |
| > 52.5 | O=C(COc1ccc2cc(Br)ccc2c1)N1CCOCC1 |
| 0.8 (≈ 3.01 µM) | Cc1cccc(C(=O)Nc2cccc3c2CCCC3)c1 |
| > 43.5 | Cc1nc2oc3ccc(Cl)cc3c(=O)c2cc1C(=O)O |
| > 40 | O=C(NCC(=O)N1CCCC1)c1ccc(Cl)cc1 |
| > 49.8 | CC1(C)CC(=O)C2=C(C1)OC(N)=C([N+](=O)[O-])C2c1ccc(F)cc1 (centres undefined) |
| 5.1 (≈ 15.6 µM) | Cc1cc(C=O)c(C)n1-c1ccc(NC2CCCC2)c([N+](=O)[O-])c1 |
| 43.7 (≈ 126 µM) | Cc1cc(C)cc(NC(=S)N(CCN(C)C)Cc2cccs2)c1 |
| 1.3 (≈ 4.1 µM) | CCOC(=O)c1cc2c(ccn2C)n1Cc1ccc(Cl)cc1 |
| 13.8 (≈ 42 µM) | COc1ccc2cc(S(=O)(=O)NCc3cccnc3)ccc2c1 |
| > 43 | Cc1cccc(CNC(=O)C2CCC(=O)N(C3CC3)C2)c1 (centres undefined) |
| 10 (≈ 36.1 µM) | COC(=O)C1=C(NC(=O)c2ccccc2C)CCS1 |
| 8 (≈ 28.2 µM) | O=C(c1cccc([N+](=O)[O-])c1)c1ccc2[nH]c(=O)[nH]c2c1 |
| 3 (≈ 10.4 µM) | Cc1ccc(C)c(OCCCC(=O)NC2CCCCC2)c1 |
| > 47.7 | O=C(O)C1CCC(N2C(=O)c3cccc([N+](=O)[O-])c3C2=O)CC1 (centres undefined) |
| 43.7 (≈ 146 µM) | CCOC(=O)C1=C(C)OC(N)=C(C#N)C1c1cccc(C)c1 (centres undefined) |
| 32.7 (≈ 108 µM) | O=C(CNCc1ccc(F)cc1)Nc1ccccc1[N+](=O)[O-] |
| 1.4 (≈ 4.09 µM) | O=C(NC(=S)Nc1ccc2oc(=O)ccc2c1)c1ccccc1F |
| > 50 | Cn1cnnc1SCC(=O)Nc1ccc(N2CCOCC2)cc1 |
| > 73 | COc1ccc(NS(=O)(=O)c2cc(C(=O)NNC(=O)c3ccncc3)ccc2OC)c(OC)c1 |
| 39.6 (≈ 125 µM) | Cc1ccc(C)c(-c2cc(C(=O)NC3CC3)c3ccccc3n2)c1 |
| 5.2 (≈ 15.2 µM) | CCOc1ccc(/C=N/OCC(=O)Nc2ccc3c(c2)OCO3)cc1 |

| solubility kinetic [µg/mL] | Compound |
| --- | --- |
| > 46.1 | CN(C)c1ccc(/C=N/NC(=O)c2ccc3nc[nH]c3c2)cc1 |
| > 51.1 | O=C(Cn1c(=O)oc2ccccc21)NCC1COc2ccccc2O1 (centres undefined) |
| 53.4 (≈ 132 µM) | CN(CC(=O)Nc1ccc(F)c(F)c1F)C(=O)c1ccc(N2CCCC2=O)cc1 |
| > 44.3 | Cc1ccc(N2C(=O)CN=C2Nc2nc(C)cc(C)n2)cc1 |
| 49.7 | CCOC(=O)C[n+]1ccc2c([nH]c3ccccc32)c1C.[Br-] |
| > 35 | CCOc1c(Nc2ccccc2O)c(=O)c1=O |
| 7.7 (≈ 22.9 µM) | Cc1nc2c3cc(Cl)ccc3n(CCN3CCOCC3)c2s1 |
| 26.2 (≈ 95.9 µM) | C=CCOc1ccc(/C=C2/C(=O)ON=C2C)cc1OC |
| 45.9 (≈ 145 µM) | CNC(=S)NC1CC2CCCC(C1)N2Cc1ccc(C)cc1 (centres undefined) |
| 3.2 (≈ 11.4 µM) | Cc1ccc(C(=O)NC2CCCCCCC2)c(Cl)c1 |
| > 52 | COCCn1c(SCc2ccccc2)nc2c1c(=O)[nH]c(=O)n2C |
| 30.6 (≈ 103 µM) | Cc1nc2ccc(NC(=O)c3ccc([N+](=O)[O-])cc3)cc2[nH]1 |
| 0.6 (≈ 1.84 µM) | CCN(CC)C(=O)CSc1nc(-c2ccccc2)ccc1C#N |
| 0.7 (≈ 2.23 µM) | N#Cc1ccccc1NC(=O)CSc1ccc([N+](=O)[O-])cn1 |
| > 46.7 | CC1CN(C(=O)c2cccc(Oc3ccccc3)c2)CC(C)O1 (centres undefined) |
| 3.4 (≈ 17.2 µM) | c1ccc2nc3c(cc2c1)CCCCC3 |
| > 49.7 | Cc1ccc(C)c(-n2c3nc(=O)n(C)c(=O)c-3cc3ccccc32)c1 |
| > 43.7 | CNC(=O)c1sc(NCc2ccccc2OC)nc1C |
| 24.9 (≈ 79.7 µM) | COc1cccc(N2C(=O)CN(Cc3ccccc3)C2=S)c1 |
| 17.5 (≈ 48.6 µM) | CCOC(=O)C1CCCN(C(=O)c2cc3cc(OC)c(OC)cc3[nH]2)C1 (centres undefined) |
| 0.7 (≈ 2.16 µM) | COc1cc2cc(C(=O)N(C)Cc3ccccc3)[nH]c2cc1OC |
| > 48.7 | CC1C(=O)N2CCCc3cc(NC(=O)c4ccccc4F)cc1c32 (centres undefined) |

Source: PubChem BioAssay AID1996
